Tests used:
[1] = test system: P-gp; assay: P-gp inhibition, calcein assay in P388/dx cells; type: in vitro ADME; settings: mouse, P388/dx cells over-expressing murine mdr1a/b, probe calcein
Experimental: P388 and P388/dx cells. For testing P-gp inhibition, the murine monocytic leukemia cell line P388/dx over-expressing murine mdr1a/b and the corresponding parental cell line P388 were used. Both cell lines were kindly provided by D. Ballinari (Pharmacia & Upjohn, Milano, Italy). The cells were cultured under standard cell culture conditions with an RPMI 1640 medium supplemented with 10% FCS, 2 mM of glutamine, […] of β-mercaptoethanol, 100 U/mL of penicillin, and 100 µg/mL of streptomycin sulfate. For maintaining P-gp expression, the culture medium for P388/dx was supplemented with 0.43 µM of doxorubicin. One day before the assay, both cell lines were fed with a doxorubicin-free culture medium.
P-gp inhibition was assessed with the calcein assay in P388/dx cells as described previously. Inhibition of P-gp increases intracellular calcein fluorescence in these cells. Each venetoclax concentration (0.005–50 µM) was tested in octuplet, and the experiment was performed in quadruplicate.

[2] = molecular target: T1, BCRP (Homo sapiens, UniProt Q9UNQ0); assay: BCRP inhibition, flow cytometric pheophorbide A assay in MDCKII-BCRP cells; type: in vitro ADME
T1 construct: expressed in transfected cells; host or cells: MDCKII-BCRP (gift of A. H. Schinkel and P. Borst)
T1 sequence (Q9UNQ0 whole entry): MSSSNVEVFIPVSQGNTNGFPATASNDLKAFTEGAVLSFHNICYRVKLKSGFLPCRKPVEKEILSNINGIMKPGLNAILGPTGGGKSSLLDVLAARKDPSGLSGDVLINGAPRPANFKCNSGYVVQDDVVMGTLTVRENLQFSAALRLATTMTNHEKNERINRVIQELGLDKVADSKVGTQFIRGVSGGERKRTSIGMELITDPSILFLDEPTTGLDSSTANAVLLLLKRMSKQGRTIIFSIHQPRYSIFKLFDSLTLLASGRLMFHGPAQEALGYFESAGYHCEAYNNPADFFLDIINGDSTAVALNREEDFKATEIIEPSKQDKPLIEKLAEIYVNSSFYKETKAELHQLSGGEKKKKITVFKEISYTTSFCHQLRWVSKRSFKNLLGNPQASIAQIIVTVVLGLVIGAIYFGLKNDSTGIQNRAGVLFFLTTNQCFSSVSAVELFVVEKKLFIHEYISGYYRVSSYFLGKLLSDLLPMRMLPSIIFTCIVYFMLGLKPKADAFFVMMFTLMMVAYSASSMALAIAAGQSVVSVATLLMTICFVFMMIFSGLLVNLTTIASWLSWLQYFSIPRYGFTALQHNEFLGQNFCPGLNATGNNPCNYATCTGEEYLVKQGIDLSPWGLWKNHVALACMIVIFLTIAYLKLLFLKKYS
Excerpt: MDCKII cells. The transporter over-expressing cell lines MDCKII-MDR1 [5], MDCKII-MRP2 [6], and MDCKII-BCRP [7] and the corresponding parental cell line MDCKII were used to assess the sensitivity of cells with and without P-gp, multidrug resistance-associated protein 2 (MRP2/ABCC2), or BCRP expression. Moreover, MDCKII-BCRP cells were used to assess BCRP inhibition by venetoclax. MDCKII over-expressing cell lines were kindly provided by A. H. Schinkel and P. Borst (Amsterdam, The Netherlands). The parental cell line MDCKII (available at ATCC, Manassas, VA, USA) was used as a control. The cells were cultured in Dulbecco’s Modified Eagle’s Medium (DMEM) containing 10% FCS, 2 mM of glutamine, 100 U/mL of penicillin, and 100 µg/mL of streptomycin sulfate.
Flow cytometric BCRP inhibition assays were conducted in control (MDCKII) and BCRP over-expressing cells (MDCKII-BCRP) using PhA as a fluorescent BCRP substrate as described and validated previously. Inhibition of BCRP leads to an increase in intracellular PhA concentrations. Each experiment was performed in triplicate. Venetoclax was tested from 0.1 up to 100 µM.

[3] = molecular target: T2, CYP2C19 (Homo sapiens, UniProt P33261); assay: CYP2C19 inhibition, CYP2C19/CEC High Throughput Inhibitor Screening Kit; type: in vitro ADME; settings: recombinant CYP, fluorogenic substrate
T2 construct: purchased Becton Dickinson Biosciences (Heidelberg, Germany)
T2 sequence (P33261 whole entry): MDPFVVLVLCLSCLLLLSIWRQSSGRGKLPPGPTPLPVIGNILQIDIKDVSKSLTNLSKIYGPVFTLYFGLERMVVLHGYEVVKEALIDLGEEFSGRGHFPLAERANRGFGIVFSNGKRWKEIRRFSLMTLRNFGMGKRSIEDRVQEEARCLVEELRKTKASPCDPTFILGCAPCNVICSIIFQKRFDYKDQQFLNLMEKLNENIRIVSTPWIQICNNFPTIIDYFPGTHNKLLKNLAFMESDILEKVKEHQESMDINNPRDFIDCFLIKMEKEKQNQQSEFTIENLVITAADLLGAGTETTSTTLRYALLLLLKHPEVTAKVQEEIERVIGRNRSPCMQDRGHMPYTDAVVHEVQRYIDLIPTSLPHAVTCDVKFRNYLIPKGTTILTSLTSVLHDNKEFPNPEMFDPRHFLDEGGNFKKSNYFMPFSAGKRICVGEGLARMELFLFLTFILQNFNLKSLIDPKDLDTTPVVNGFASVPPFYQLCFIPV
Experimental: Inhibition studies for CYP2B6, CYP2D6, CYP2C19 and CYP3A4 were performed with the CYP2B6/EFC, CYP2D6/AMMC, the CYP2C19/CEC, and the CYP3A4/BFC High Throughput Inhibitor Screening Kit according to the manufacturer’s instructions. The kits contain the respective recombinant CYP and fluorogenic substrates, which are blocked dyes emitting a fluorescence signal when cleaved by the enzyme. For testing CYP1A2 inhibition, the P450-Glo CYP1A2 Screening System was used according to the manufacturer’s instructions. The kit contains the luminogenic CYP1A2 substrate luciferin-ME, which is converted by CYP1A2 into luciferin-generating light when incubated with the luciferin detection reagent of the kit. Eight concentrations of venetoclax in duplicates (0.009–20 µM) were tested in the fluorescence assays, and eight concentrations in triplicate (0.05–100 µM) were tested for the luminogenic assay. Each experiment was conducted in triplicate.

[4] = test system: CYP1A2; assay: Western blot of CYP1A2 protein expression in LS180 cells; type: in vitro ADME, human; settings: four days
Experimental: For the induction experiments, LS180 cells were seeded in 75 cm^2 culturing flasks and incubated for three days. Cells were then treated with a culture medium containing venetoclax (0.01–10 µM) in quintuplicate for four consecutive days. Rifampicin (20 µM) served as a positive control for PXR-driven genes and culture medium as a negative control. All incubation solutions were adjusted to 0.02% DMSO. After harvesting, cells were split for RNA and protein extraction.
To exemplarily verify the effects of venetoclax on mRNA expression, protein expressions of P-gp and CYP1A2 were analyzed in triplicate by SDS polyacrylamide gel electrophoresis (SDS-PAGE) and Western blotting. In brief, cell lysates containing 20 µg protein were mixed with 5× sample buffer (containing Tris–HCl, SDS, DTT, bromophenol blue, and glycerol) and subjected to 10% SDS-PAGE. Afterwards, proteins were electrotransferred to nitrocellulose nitrate membranes. Blots were blocked by incubation for 20–40 min with 5% Slim-Fast® (w/v) in phosphate-buffered saline containing 0.1% Tween®20. […] Bands were visualized by enhanced chemiluminescence using the SuperSignal®West Pico Chemiluminescent Substrate Kit and recorded by FluorChem Q SA AlphaView Version 3.2.2, Cell Biosciences (Santa Clara, CA, USA).

[5] = test system: T3, AhR; assay: AhR reporter gene assay in AZ-AHR cells; type: cell-based, human; settings: 24 h, up to 10 µM
T3 construct: endogenous in cells; host or cells: AZ-AHR (HepG2 with stably integrated AhR-responsive luciferase reporter; gift of Z. Dvorak)
Experimental: AZ-AHR cells. The human hepatoma cell line HepG2 stably transfected with a construct containing several AhR binding sites upstream of luciferase reporter gene was used to investigate whether venetoclax can activate AhR. Cells were kindly provided by Z. Dvorak (Palacky University, Olomouc, Czech Republic).
To test whether the induction of CYP1A1 or UGTs can be attributed to AhR activation by venetoclax, an AhR reporter gene assay was applied. 60,000 AZ-AhR cells were seeded into each well of 96-well plates with clear bottom and clear lid for luminometry. After incubation for 24 h, cells were treated in triplicate with venetoclax (0.1–10 µM) or vehicle control (0.2% DMSO) for a further 24 h. The assay was performed with the Steady-Glo™ Luciferase Assay System according to the manufacturer’s instructions. Drug-induced increases of AhR receptor activity were normalized to activity of non-drug treated controls, which was set to 1 (= 100%). The experiment was performed in triplicate.

[6] = Intestinal concentration by FDA formula; settings: after a dose of 250 mg, according to FDA formula (dose/250 mL)
Experimental: Thus, the question of whether these effects will also play a role in the clinical situation arises. Therapeutic plasma concentrations of venetoclax reach about 5 µM [3, 34, 35], a similar range to concentrations inhibiting drug transporters and CYP in vitro. […] Thus, even the moderate inhibition of P-gp by venetoclax might be relevant and should be tested in vivo.

SMILES: CC1(C)CCC(CN2CCN(c3ccc(C(=O)NS(=O)(=O)c4ccc(NCC5CCOCC5)c([N+](=O)[O-])c4)c(Oc4cnc5[nH]ccc5c4)c3)CC2)=C(c2ccc(Cl)cc2)C1 [Venetoclax]
- IC50 [1]: 30 ± 3.7 µM
- IC50 [2]: 19.6 ± 7.3 µM
- IC50 [3]: 14.2 ± 1 µM
- CYP1A2 protein expression [4]: induction
- luciferase activity in the AhR reporter gene assay [5]: did not increase
- concentration reached in the intestine [6]: about 1 mM

Reference: article PMC4810081, “Venetoclax (ABT-199) Might Act as a Perpetrator in Pharmacokinetic Drug–Drug Interactions” (Pharmaceutics, 2016)
